Measured values reported in patent US10590113B2, “6-hydroxy-4-oxo-1,4-dihydropyrimidine-5-carboxamides as APJ agonists” (priority 2016, dated 2020).

What follows are compounds tested against T1, human APJ receptor (Homo sapiens, UniProt P35414) (assay: Intracellular cAMP Accumulation Assay (APJ hcAMP, HTRF)). Conditions: human APJ, cAMP accumulation; potency range class; read-out: hAPJ cAMP EC50 Potency range.
T1 construct: expressed in transfected cells; host or cells: HEK293
T1 sequence (P35414 1-380): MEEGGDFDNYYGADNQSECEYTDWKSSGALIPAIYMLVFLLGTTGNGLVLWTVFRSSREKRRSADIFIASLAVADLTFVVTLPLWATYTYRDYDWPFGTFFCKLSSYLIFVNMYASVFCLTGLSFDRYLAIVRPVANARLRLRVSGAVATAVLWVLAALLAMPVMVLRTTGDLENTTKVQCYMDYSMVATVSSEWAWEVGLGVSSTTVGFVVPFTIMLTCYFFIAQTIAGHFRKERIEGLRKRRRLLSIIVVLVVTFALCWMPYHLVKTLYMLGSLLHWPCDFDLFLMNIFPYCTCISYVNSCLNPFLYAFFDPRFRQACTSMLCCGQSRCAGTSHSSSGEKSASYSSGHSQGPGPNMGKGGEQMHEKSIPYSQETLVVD
Assay type: cell-based
Summary of the method: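 Stably transfected HEK293 cells (5,000/well) incubated 30 min at room temperature with serially diluted compound, […] and 2 μM forskolin. cAMP measured by HTRF after 60 min with detection reagents, quantified against a cAMP standard curve; EC50 from variable-slope sigmoidal fit of inhibition of forskolin-stimulated cAMP.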
COc1cccc(OC)c1-n1c(-c2ccc(Cl)nc2)nc(=O)c(C(=O)N2CCC(c3ccc(F)cc3F)C2)c1O (single isomer, unassigned) [Example 279, 2-(6-chloropyridin-3-yl)-5-[3-(2,4-difluorophenyl)pyrrolidine-1-carbonyl]-1-(2,6-dimethoxyphenyl)-6-hydroxy-1,4-hydropyrimidin-4-one] gave an EC50 of 0.01 to 10 nM. For COc1cccc(OC)c1-n1c(-c2ccc(Cl)cn2)nc(=O)c(C(=O)N2CCC(c3c(F)cccc3F)C2)c1O (single isomer, unassigned) [Example 280, 2-(5-chloropyridin-2-yl)-5-[3-(2,6-difluorophenyl)pyrrolidine-1-carbonyl]-1-(2,6-dimethoxyphenyl)-6-hydroxy-1,4-dihydropyrimidin-4-one], the EC50 was 0.01 to 10 nM. For COc1cccc(OC)c1-n1c(-c2ccc(Cl)nc2)nc(=O)c(C(=O)N2CCC(c3c(F)cccc3F)C2)c1O (single isomer, unassigned) [Example 281, 2-(6-chloropyridin-3-yl)-5-[3-(2,6-difluorophenyl)pyrrolidine-1-carbonyl]-1-(2,6-dimethoxyphenyl)-6-hydroxy-1,4-dihydropyrimidin-4-one], the EC50 was 0.01 to 10 nM. For COc1cccc(OC)c1-n1c(-c2ccc(Cl)cn2)nc(=O)c(C(=O)N2CCC(c3ccc(F)cc3F)C2)c1O (single isomer, unassigned) [Example 287, 2-(5-chloropyridin-2-yl)-5-[3-(2,4-difluorophenyl)pyrrolidine-1-carbonyl]-1-(2,6-dimethoxyphenyl)-6-hydroxy-1,4-dihydropyrimidin-4-one], the EC50 was 0.01 to 10 nM. CCc1cccc(CC)c1-n1c(-c2ccn(C(C)C)n2)nc(=O)c(C(=O)N2CCC(c3ncc(Cl)cc3F)C2)c1O (single isomer, unassigned) [Example 290, 5-[3-(5-chloro-3-fluoropyridin-2-yl)pyrrolidine-1-carbonyl]-1-(2,6-diethylphenyl)-6-hydroxy-2-[1-(propan-2-yl)-1H-pyrazol-3-yl]-1,4-dihydropyrimidin-4-one] gave an EC50 of 0.01 to 10 nM. Work on CCc1cccc(CC)c1-n1c(-c2ccn(C(C)C)n2)nc(=O)c(C(=O)N2CCC(c3ncccc3F)C2)c1O (single isomer, unassigned) [Example 292, 1-(2,6-diethylphenyl)-5-[3-(3-fluoropyridin-2-yl)pyrrolidine-1-carbonyl]-6-hydroxy-2-[1-(propan-2-yl)-1H-pyrazol-3-yl]-1,4-dihydropyrimidin-4-one] yielded an EC50 of 0.01 to 10 nM. Work on CCn1ccc(-c2nc(=O)c(C(=O)N3CCC(c4ncc(F)cc4F)C3)c(O)n2-c2cccc(C(C)C)c2)n1 (single isomer, unassigned) [Example 293, 5-[3-(3,5-difluoropyridin-2-yl)pyrrolidine-1-carbonyl]-2-(1-ethyl-1H-pyrazol-3-yl)-6-hydroxy-1-[3-(propan-2-yl)phenyl]-1,4-dihydropyrimidin-4-one] yielded an EC50 of 0.01 to 10 nM. CCn1ccc(-c2nc(=O)c(C(=O)N3CCC(c4ccccc4F)C3)c(O)n2-c2cccc(C(C)C)c2)n1 (single isomer, unassigned) [Example 294, 2-(1-ethyl-1H-pyrazol-3-yl)-5-[3-(2-fluorophenyl)pyrrolidine-1-carbonyl]-6-hydroxy-1-[3-(propan-2-yl)phenyl]-1,4-dihydropyrimidin-4-one] showed an EC50 of 0.01 to 10 nM. CCc1cccc(CC)c1-n1c(-c2ccn(C(C)C)n2)nc(=O)c(C(=O)N2CCC(c3ccccc3F)C2)c1O (single isomer, unassigned) [Example 295, 1-(2,6-diethylphenyl)-5-[3-(2-fluorophenyl)pyrrolidine-1-carbonyl]-6-hydroxy-2-[1-(propan-2-yl)-1H-pyrazol-3-yl]-1,4-dihydropyrimidin-4-one] gave an EC50 of 0.01 to 10 nM. CCc1cccc(CC)c1-n1c(-c2csc(C)n2)nc(=O)c(C(=O)N2CCC(c3ncc(Cl)cc3F)C2)c1O (single isomer, unassigned) [Example 296, 5-[3-(5-chloro-3-fluoropyridin-2-yl)pyrrolidine-1-carbonyl]-1-(2,6-diethylphenyl)-6-hydroxy-2-(2-methyl-1,3-thiazol-4-yl)-1,4-dihydropyrimidin-4-one] was tested, and the EC50 was 0.01 to 10 nM. For CCc1cccc(CC)c1-n1c(-c2csc(C(C)C)n2)nc(=O)c(C(=O)N2CCC(c3ncc(F)cc3F)C2)c1O (single isomer, unassigned) [Example 297, 1-(2,6-diethylphenyl)-5-[3-(3,5-difluoropyridin-2-yl)pyrrolidine-1-carbonyl]-6-hydroxy-2-[2-(propan-2-yl)-1,3-thiazol-4-yl]-1,4-dihydropyrimidin-4-one], the EC50 was 0.01 to 10 nM. CCc1cccc(CC)c1-n1c(-c2csc(C)n2)nc(=O)c(C(=O)N2CCC(c3ncc(F)cc3F)C2)c1O (single isomer, unassigned) [Example 298, 1-(2,6-diethylphenyl)-5-[3-(3,5-difluoropyridin-2-yl)pyrrolidine-1-carbonyl]-6-hydroxy-2-(2-methyl-1,3-thiazol-4-yl)-1,4-dihydropyrimidin-4-one] gave an EC50 of 0.01 to 10 nM. With CCc1cccc(CC)c1-n1c(-c2csc(C(C)C)n2)nc(=O)c(C(=O)N2CCC(c3ccc(F)cn3)C2)c1O (single isomer, unassigned) [Example 300, 1-(2,6-diethylphenyl)-5-[3-(5-fluoropyridin-2-yl)pyrrolidine-1-carbonyl]-6-hydroxy-2-[2-(propan-2-yl)-1,3-thiazol-4-yl]-1,4-dihydropyrimidin-4-one] the EC50 was 0.01 to 10 nM. In the case of CCc1cccc(CC)c1-n1c(-c2csc(C)n2)nc(=O)c(C(=O)N2CCC(c3ncccc3F)C2)c1O (single isomer, unassigned) [Example 302, 1-(2,6-diethylphenyl)-5-[3-(3-fluoropyridin-2-yl)pyrrolidine-1-carbonyl]-6-hydroxy-2-(2-methyl-1,3-thiazol-4-yl)-1,4-dihydropyrimidin-4-one], the EC50 is reported as 0.01 to 10 nM. In the case of CCc1cccc(CC)c1-n1c(-c2nc(C)cs2)nc(=O)c(C(=O)N2CCC(c3ncc(Cl)cc3F)C2)c1O (single isomer, unassigned) [Example 306, 5-[3-(5-chloro-3-fluoropyridin-2-yl)pyrrolidine-1-carbonyl]-1-(2,6-diethylphenyl)-6-hydroxy-2-(4-methyl-1,3-thiazol-2-yl)-1,4-dihydropyrimidin-4-one], the EC50 is reported as 0.01 to 10 nM. CCc1cccc(CC)c1-n1c(-c2nc(C)cs2)nc(=O)c(C(=O)N2CCC(c3ncccc3F)C2)c1O (single isomer, unassigned) [Example 307, 1-(2,6-diethylphenyl)-5-[3-(3-fluoropyridin-2-yl)pyrrolidine-1-carbonyl]-6-hydroxy-2-(4-methyl-1,3-thiazol-2-yl)-1,4-dihydropyrimidin-4-one] showed an EC50 of 0.01 to 10 nM. Compound CCc1cccc(CC)c1-n1c(-c2ccn(CC)n2)nc(=O)c(C(=O)N2CCC(c3ncccc3F)C2)c1O (single isomer, unassigned) [Example 308, 1-(2,6-diethylphenyl)-2-(1-ethyl-1H-pyrazol-3-yl)-5-[3-(3-fluoropyridin-2-yl)pyrrolidine-1-carbonyl]-6-hydroxy-1,4-dihydropyrimidin-4-one] has an EC50 of 0.01 to 10 nM. For CCc1cccc(CC)c1-n1c(-c2ccn(CC)n2)nc(=O)c(C(=O)N2CCC(c3ncc(F)cc3F)C2)c1O (single isomer, unassigned) [Example 309, 1-(2,6-diethylphenyl)-5-[3-(3,5-difluoropyridin-2-yl)pyrrolidine-1-carbonyl]-2-(1-ethyl-1H-pyrazol-3-yl)-6-hydroxy-1,4-dihydropyrimidin-4-one], the EC50 was 0.01 to 10 nM. For CCc1cccc(CC)c1-n1c(-c2cnn(CC)c2)nc(=O)c(C(=O)N2CCC(c3ccccc3F)C2)c1O (single isomer, unassigned) [Example 310, 1-(2,6-diethylphenyl)-2-(1-ethyl-1H-pyrazol-4-yl)-5-[3-(2-fluorophenyl)pyrrolidine-1-carbonyl]-6-hydroxy-1,4-dihydropyrimidin-4-one], the EC50 was 0.01 to 10 nM. In the case of CCc1cccc(CC)c1-n1c(-c2ccn(CC)n2)nc(=O)c(C(=O)N2CCC(c3ncc(Cl)cc3F)C2)c1O (single isomer, unassigned) [Example 311, 5-[3-(5-chloro-3-fluoropyridin-2-yl)pyrrolidine-1-carbonyl]-1-(2,6-diethylphenyl)-2-(1-ethyl-1H-pyrazol-3-yl)-6-hydroxy-1,4-dihydropyrimidin-4-one], the EC50 is reported as 0.01 to 10 nM. In the case of CCc1cccc(CC)c1-n1c(-c2nc(C)cs2)nc(=O)c(C(=O)N2CCC(c3ncc(Cl)cc3F)C2)c1O (single isomer, unassigned) [Example 312, 5-[3-(5-chloro-3-fluoropyridin-2-yl)pyrrolidine-1-carbonyl]-1-(2,6-diethylphenyl)-6-hydroxy-2-(4-methyl-1,3-thiazol-2-yl)-1,4-dihydropyrimidin-4-one], the EC50 is reported as 0.01 to 10 nM. CCc1cccc(CC)c1-n1c(-c2cnn(CC)c2)nc(=O)c(C(=O)N2CCC(c3ncc(Cl)cc3F)C2)c1O (single isomer, unassigned) [Example 313, 5-[3-(5-chloro-3-fluoropyridin-2-yl)pyrrolidine-1-carbonyl]-1-(2,6-diethylphenyl)-2-(1-ethyl-1H-pyrazol-4-yl)-6-hydroxy-1,4-dihydropyrimidin-4-one] gave an EC50 of 0.01 to 10 nM. Work on CCc1cccc(CC)c1-n1c(-c2cnn(CC)c2)nc(=O)c(C(=O)N2CCC(c3ncc(F)cc3F)C2)c1O (single isomer, unassigned) [Example 315, 1-(2,6-diethylphenyl)-5-[3-(3,5-difluoropyridin-2-yl)pyrrolidine-1-carbonyl]-2-(1-ethyl-1H-pyrazol-4-yl)-6-hydroxy-1,4-dihydropyrimidin-4-one] yielded an EC50 of 0.01 to 10 nM.
